Four compounds from patent publication US11662349B2, “Carbohydrate sensors” (Commonwealth Scientific and Industrial Research Organisation, priority 2017, dated 2023) can be followed below.

Assay [1] has as its target LacB1 sensor, GFP^2-BgaR-RLuc8 fusion protein, SEQ ID NO: 15 (BgaR from Clostridium perfringins strain 13, SEQ ID NO: 1) (Clostridium perfringens, UniProt Q8XMB9). Kind of assay: biochemical. In kind it is binding.
Assay [2] addresses LacF1 sensor, His6-CFP-BgaR-YFP fusion protein, SEQ ID NO: 23 (BgaR from Clostridium perfringins strain 13, SEQ ID NO: 1) (Clostridium perfringens, UniProt Q8XMB9). In kind it is binding.

Values joined by “and” are separate entries in the source; they are usually repeats but may differ in a detail not shown here. Equal entries are not always repeated.

For `OC[C@H]1OC(O)[C@H](O)[C@@H](O)[C@@H]1O` (some centres unmarked) [glucose], in assay [1], the “change in BRET^2 ratio” value was 9% and 6%.
Usually EC50 stands for the midpoint of the concentration-response curve. Read a low EC50 as greater potency. On to `OC[C@H]1O[C@@H](O[C@@H]2[C@@H](CO)OC(O)(CO)[C@H]2O)[C@H](O)[C@@H](O)[C@H]1O` (stereo partly drawn) [lactulose, 4-O-β-D-galactosyl-D-fructose], for which, in assay [1], the “affinity of LacB1 for lactulose weaker than for lactose” value was “approximately 150 fold”; the “change in BRET^2 ratio” value was “approximately 21%”; the “difference in EC50 between lactose and lactulose” value came to 200 fold; the “limit of detection (LOD), lactulose” value stood at 0.1 mM. The “limit of detection for lactulose higher than for lactose” value in assay [1] stood at 100 fold. The compound further displayed a concentration giving a half-maximal response (EC50) in assay [1] (EC50 (lactulose)) of 2400 ± 200 µM.
With `OC[C@H]1OC(O)[C@H](O)[C@@H](O)[C@H]1O` (some centres unmarked) [galactose], the “change in BRET^2 ratio” value in assay [1] is 3% and 13%.
As for `OC[C@H]1O[C@@H](O[C@H]2[C@H](O)[C@@H](O)C(O)O[C@@H]2CO)[C@H](O)[C@@H](O)[C@H]1O` (stereo partly drawn) [lactose, β-D-galactosyl-(1→4)-D-glucose], in assay [1], the “RET ratio in the presence of lactose” value was determined as 0.800±0.003, the “change in BRET^2 ratio” value is “approximately 35%” and the “drop in RET ratio” value was 27%. Moreover, the EC50 in assay [1] (EC50 (lactose)) is 12 µM and 21 µM and 11 to 14 µM and 18 to 23 µM. For the same compound, in assay [2], the “RET ratio in the presence of lactose” value amounted to 1.089±0.004 and the “decrease in RET ratio” value was found to be 10%.
